Reference: the NIST ThermoML archive (doi:10.1016/j.fluid.2016.01.028)
± gives the expanded uncertainty stated by the source.

Conditions: Liquid, Closed cell (Static) method

| SMILES | vapor or sublimation pressure (283.15 K) | vapor or sublimation pressure (293.15 K) | vapor or sublimation pressure (303.15 K) | vapor or sublimation pressure (313.15 K) | vapor or sublimation pressure (323.15 K) |
| --- | --- | --- | --- | --- | --- |
| CC(C)C [2-methylpropane] | 220.9 ± 1.1 kPa | 302.7 ± 1.1 kPa | 404.4 ± 1.2 kPa | 531.3 ± 1.3 kPa | 684.2 ± 1.4 kPa |
| C=C(F)C(F)(F)F [2,3,3,3-tetrafluoro-1-propene] | 437.9 ± 1.2 kPa | 591.5 ± 1.3 kPa | 782.9 ± 1.5 kPa | 1018.2 ± 1.8 kPa | 1302.4 ± 2.1 kPa |
| FCC(F)(F)F [1,1,1,2-tetrafluoroethane] | 415.5 ± 1.2 kPa | 572.4 ± 1.3 kPa | 768.9 ± 1.5 kPa | 1015.5 ± 1.8 kPa | 1317.2 ± 2.1 kPa |
